Experimental data published in patent US20130231290A1, “METHODS OF DIAGNOSING AND TREATING NEURODEGENERATIVE DISEASES” (DIGNITY HEALTH, priority 2010, published 2013).

Experiments:
[1] = test system: cultured hippocampal pyramidal neurons; assay: Patch-clamp recording of neuronal excitability in cultured hippocampal neurons after chronic Aβ; type: cell-based, mouse; conditions: for neuronal excitability (spontaneous bursting AP firing, input-output curve): chronic exposure, treated vs untreated neurons
[2] = biological target: α7β2-nAChRs on MS/DB cholinergic neurons (Rattus norvegicus, UniProt P12390+Q05941); assay: Perforated-patch whole-cell recording of nAChR-mediated (choline/ACh-induced) currents in acutely dissociated MS/DB cholinergic neurons; type: cell-based
[3] = biological target: T1, homomeric α7-nAChRs on VTA DAergic neurons (Rattus norvegicus, UniProt Q05941); type: cell-based
T1 construct: native nAChR responses in rat MS/DB or VTA neurons; endogenous in cells; host or cells: acutely dissociated VTA dopaminergic neurons of Wistar rats

heteromeric α7β2-nAChRs = biological target: T2, heteromeric α7β2-nAChRs (Rattus norvegicus, UniProt P12390+Q05941); type: cell-based
T2 construct: expressed in transfected cells; host or cells: Xenopus laevis oocytes injected with cRNA (pGEMHE vector)

[4] = biological target: T3, α7-containing-nAChRs in nAChR β2 subunit knockout mice (Mus musculus, UniProt P49582); type: cell-based
T3 construct: MS/DB neurons derived from nAChR β2 subunit knock-out mice; endogenous in cells; host or cells: acutely dissociated MS/DB neurons of nAChR β2 knockout mice (C57/Bl6 background)

[5] = biological target: T4, α7β2-nAChRs on MS/DB cholinergic neurons (Mus musculus, UniProt P49582+Q9ERK7); assay: Choline-induced currents in MS/DB neurons from wild-type mice; type: cell-based; conditions: 1 nM
T4 construct: Compared to MS/DB neurons from WT mice; endogenous in cells; host or cells: acutely dissociated MS/DB neurons of wild-type C57/Bl6 mice

GABAA receptors = assay: GABA-induced currents in rat MS/DB cholinergic neurons; type: cell-based; conditions: 1 nM peptide; 0.1 mM GABA
[6] = test system: ionotropic glutamate receptors; assay: Glutamate-induced currents in rat MS/DB cholinergic neurons; type: cell-based; conditions: 1 nM peptide; 1 mM glutamate
[7] = test system: cultured mouse hippocampal neurons; assay: Aβ-induced degeneration of cultured hippocampal neurons (DAPI staining, LDH levels); type: cell-based
[8] = test system: α7−/− hippocampal neurons; assay: Aβ toxicity in α7−/− hippocampal neurons; type: cell-based, mouse; conditions: α7−/− compared to WT hippocampal neurons
neurons from α7−/− mice = assay: Neuronal excitability after chronic Aβ in cultured hippocampal neurons from α7−/− mice; type: cell-based, mouse; conditions: chronic exposure
Text: To further investigate whether pharmacological block of α7-nAChR eliminated the expression of neuronal hyperexcitation after chronic Aβ exposure. […] Comparing cultured neurons from WT and α7−/− mice could further establish if α7-nAChRs play a role in the induction of Aβ-induced neuronal hyperexcitation by comparing cultured neurons from WT and α7−/− mice.

hippocampal CA1 slices = assay: CCh-induced network synchronization, field potential recordings in hippocampal CA1 slices from WT mice; type: cell-based, mouse; conditions: 50 μM bath-perfusion, mice 6 months old
Text: (§1) Comparing CCh-induced network synchronization in the hippocampal CA1 slices from WT and α7−/− mice (6 months old) using field potential recordings allowed testing of whether α7-nAChRs contribute to network synchronization and seizure susceptibility.

α7−/− slices = assay: CCh-induced network synchronization, field potential recordings in hippocampal CA1 slices from α7−/− mice; type: cell-based, mouse; conditions: 50 μM, mice 6 months old
Text: as §1

[9] = test system: hippocampal slices prepared from 3×Tg-AD mice; assay: CCh-induced network synchronization, field recordings in CA1 of hippocampal slices from 3×Tg-AD mice; type: cell-based, mouse; conditions: 3×Tg mice (10 month-old) compared to age-matched WT mice
MS/DB neurons = assay: Current-clamp recording of spontaneous action potential firing in dissociated MS/DB neurons; type: cell-based, rat; conditions: 1 μM
[10] = chronic Aβ, neurons from WT mice

T1 sequence (Q05941 23-502): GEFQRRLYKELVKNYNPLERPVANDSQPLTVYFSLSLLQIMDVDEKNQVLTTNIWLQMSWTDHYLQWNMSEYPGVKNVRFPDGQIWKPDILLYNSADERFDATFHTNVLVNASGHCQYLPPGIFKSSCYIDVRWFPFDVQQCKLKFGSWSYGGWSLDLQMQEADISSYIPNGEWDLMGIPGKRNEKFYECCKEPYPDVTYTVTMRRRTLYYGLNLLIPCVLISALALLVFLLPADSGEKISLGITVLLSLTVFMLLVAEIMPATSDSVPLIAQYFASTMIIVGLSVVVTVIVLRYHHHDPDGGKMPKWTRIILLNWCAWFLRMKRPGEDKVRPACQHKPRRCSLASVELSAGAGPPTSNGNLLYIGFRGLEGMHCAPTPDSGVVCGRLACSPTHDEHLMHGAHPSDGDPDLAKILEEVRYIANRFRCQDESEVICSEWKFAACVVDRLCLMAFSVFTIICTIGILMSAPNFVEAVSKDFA
Chain of α7β2-nAChRs on MS/DB cholinergic neurons (Rattus norvegicus, UniProt P12390+Q05941) (Q05941 23-502): as above
Chain of α7β2-nAChRs on MS/DB cholinergic neurons (Rattus norvegicus, UniProt P12390+Q05941) (P12390 25-500): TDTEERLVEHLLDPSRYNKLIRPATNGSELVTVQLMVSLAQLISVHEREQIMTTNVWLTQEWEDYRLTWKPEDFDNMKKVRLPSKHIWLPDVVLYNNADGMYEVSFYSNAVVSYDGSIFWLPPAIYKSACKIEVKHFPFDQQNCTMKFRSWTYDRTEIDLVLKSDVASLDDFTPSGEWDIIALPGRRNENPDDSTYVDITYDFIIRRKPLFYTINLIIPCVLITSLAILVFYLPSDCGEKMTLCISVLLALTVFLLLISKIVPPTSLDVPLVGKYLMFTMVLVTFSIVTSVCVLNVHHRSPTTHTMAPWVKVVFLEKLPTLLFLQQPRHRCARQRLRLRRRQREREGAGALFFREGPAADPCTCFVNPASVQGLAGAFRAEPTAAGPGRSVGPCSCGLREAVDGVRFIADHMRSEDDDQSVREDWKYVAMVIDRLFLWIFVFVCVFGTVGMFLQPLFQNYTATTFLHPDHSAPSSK
T3 sequence (P49582 23-502): as the sequence (Q05941 23-502) above, with A402T counted along it
T2 sequence (Q05941 23-502): as the sequence (Q05941 23-502) above
T2 sequence (P12390 25-500): as the sequence (P12390 25-500) above
T4 sequence (P49582 23-502): as the sequence (Q05941 23-502) above, with A402T counted along it
T4 sequence (Q9ERK7 26-501): as the sequence (P12390 25-500) above, with A350T, V371M, R379Q, T383A, P387L, V391M, V449I, P468S counted along it

## CCN1C[C@]2(COC(=O)c3ccccc3N3C(=O)C[C@H](C)C3=O)CC[C@H](OC)[C@@]34[C@@H]5C[C@H]6[C@H](OC)[C@@H]5[C@](O)(C[C@@H]6OC)[C@@](O)([C@@H](OC)[C@H]23)[C@@H]14 [MLA, methyllycaconitine]
[1]; following a depolarizing pulse, MLA pretreated for 2 min, Aβ oligomers for 9 days
  effect on enhanced neuronal excitation after chronic Aβ exposure: reversibly eliminated

## CO[C@H]1CC=C2CCN3CCC4=C(CC(=O)OC4)[C@]23C1 [DHβE, dihydro-β-erythroidine]
[2]; 10 mM choline-induced currents, MS/DB neurons, n=8
  Hill coefficient of concentration-inhibition curve: 0.9
[2]; 10 mM choline, MS/DB neurons, n=8, read-out: IC50 for inhibition of choline-induced currents
  IC50: 170 nM
[2]; printed as less potent in MS/BD than in VTA neurons
  potency difference as inhibitor of choline-induced current, MS/DB vs VTA neurons: ~500 fold
[3]; 10 mM choline-induced currents, VTA neurons
  Hill coefficient of concentration-inhibition curve: 0.3
[3]; 10 mM choline, VTA neurons, n=7, read-out: IC50 for inhibition of choline-induced currents
  IC50: > 100000 nM
Heteromeric α7β2-nAChRs; 10 mM choline-induced currents in oocytes
  sensitivity to functional blockade, α7β2-nAChR compared with homomeric α7-nAChR: more sensitive
[4]; MS/DB neurons from β2 knockouts compared with wild-type
  antagonist sensitivity of choline-induced currents: lower sensitivity

## Aβ1-42: amyloid beta peptides at positions 1-42 of the amyloid precursor protein (APP), purchased from rPeptide
[2]
  effect on ACh-induced current: evident
[3]
  effect on choline-induced currents: not sensitive
Heteromeric α7β2-nAChRs
  sensitivity of choline-induced currents to peptide: demonstrated sensitivity
[4]
  suppression of choline-induced currents: failed to suppress
[5]
  suppression of choline-induced currents: did suppress
GABAA receptors
  inhibition of GABA-induced currents: insensitive
[6]
  inhibition of glutamate-induced currents: insensitive
[7]; 100 nM for 4, 7 and 10 days, primary cultured hippocampal neurons
  cytotoxicity by LDH levels: increased LDH levels
[7]; 100 nM over several days
  loss of cultured hippocampal neurons (DAPI staining): cell loss in an exposure-time-dependent manner
[8]
  toxic effects on hippocampal neurons: did not show toxic effects
[1]; [10]
  sEPSC amplitude: but not amplitude
  sEPSC frequency: enhances sEPSC frequency
[1]
  neuronal excitability (spontaneous bursting AP firing, input-output curve): shifted leftwards
Neurons from α7−/− mice
  induction of neuronal hyperexcitation: failed to evoke neuronal hyperexcitation

## CNCC/C=C/c1cccnc1 [RJR-2403]
[2]
  whole-cell current response to agonist: insensitive
[3]
  whole-cell current response to agonist: mimicked

## monomeric Aβ1-42: Aβ1-42 reconstituted in DMSO, predominant monomeric form
[2]
  suppression of choline-induced responses by peptide form: failed to suppress

## fibrillar Aβ: Aβ1-42 stock incubated at 37° C. for 48 h at pH 6.0, predominantly fibrillar form
[2]
  suppression of choline-induced responses by peptide form: weaker inhibitory effect
[1]; 10 days treatment, n=11, untreated −62.8±3.3 mV
  mean resting membrane potential of treated neurons: −53.4±2.6 mV
[1]
  neuronal excitability (spontaneous bursting AP firing, input-output curve): spontaneous bursting AP firing was observed

## C[N+](C)(C)CCOC(N)=O [CCh, carbachol]
Hippocampal CA1 slices
  induced network synchronization: induced two types of network synchronizations
α7−/− slices
  induced network synchronization: failed to induce θ-oscillations
[9]
  induced network synchronization: much stronger network synchronization

## C[C@@H]1O[C@H](C[N+](C)(C)C)C[C@H]1O [muscarine]
MS/DB neurons
  sensitivity of spontaneous action potential firing: insensitive

## oligomeric Aβ1-42: Aβ1-42 reconstituted in distilled water, predominantly oligomeric form
[2]
  suppression of choline-induced responses by peptide form: greatest suppression
